{"source": "patent US7833722B2", "about": "“Ligands for G protein-coupled receptor protein and use thereof” (Takeda Pharmaceutical Company Limited, priority 2004, dated 2010)", "target": "GPR17-GFP fusion protein (UniProt P42212+Q13304, F64L/I167T/S65C)", "assay": "Movement of GPR17-GFP fusion protein expressed in CHO cells into cells (confocal microscope)", "type": "cell-based, human", "settings": "100 μM, 45 minutes, 37° C.", "data": [{"smiles": "NCC(=O)CCC(=O)O", "note": "[ALA, 5-aminolevulinic acid]", "values": [{"measurement": "localization of GPR17-GFP fusion protein (fluorescent images of GFP)", "value": "moved in part to the cytoplasm"}]}]}
